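Method: 48-hour compound exposure of cells in 96-well plates, five concentrations, linear interpolation of endpoints. At the GI50, growth is halved.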 Calls of active or inactive are those of the source. Cut-off read from the data, not from the text of the source: active = GI50 up to about 1.1 µM and inactive = higher.
Experiments:
Test in all cases: growth of human tumour cells (NCI), 48 h
SK-MEL-2 = test system: SK-MEL-2
MOLT-4 = test system: MOLT-4
SK-MEL-28 = test system: SK-MEL-28
CCRF-CEM = test system: CCRF-CEM
RPMI-8226 = test system: RPMI-8226
UACC-62 = test system: UACC-62
Malme-3M = test system: Malme-3M
HCT-116 = test system: HCT-116
NCI-H226 = test system: NCI-H226
HCC 2998 = test system: HCC 2998
SNB-19 = test system: SNB-19
786-0 = test system: 786-0
NCI-H522 = test system: NCI-H522
ACHN = test system: ACHN
OVCAR-5 = test system: OVCAR-5
SR = test system: SR

Row | Structure (SMILES) | GI50 (SK-MEL-2) | GI50 (MOLT-4) | GI50 (SK-MEL-28) | GI50 (CCRF-CEM) | GI50 (RPMI-8226) | GI50 (UACC-62) | GI50 (Malme-3M) | GI50 (HCT-116) | GI50 (NCI-H226) | GI50 (HCC 2998) | GI50 (SNB-19) | GI50 (786-0) | GI50 (NCI-H522) | GI50 (ACHN) | GI50 (OVCAR-5) | GI50 (SR)
1 | COc1ccc(/N=N/c2c(-c3ccccc3)nn(C(=O)CC(=O)Nc3ccc(OC)cc3)c2-c2ccccc2)cc1 | 88.3 µM (inactive) | 31.8 µM (inactive) | > 100 µM (inactive) | 23.7 µM (inactive) | > 100 µM (inactive) | 42.1 µM (inactive) | > 100 µM (inactive) | 60 µM (inactive) | > 100 µM (inactive) | > 100 µM (inactive) | 29.9 µM (inactive) | 48.6 µM (inactive) | 61.5 µM (inactive) | 97.3 µM (inactive) | > 100 µM (inactive) | –
2 | C/C=C/C=C\C(=O)C1c2cccc(O)c2C(=O)c2c(O)cc(C)cc21 (centres undefined) | 1.01 µM (active) | 2.92 µM (inactive) | 1.69 µM (inactive) | 1.27 µM (inactive) | 2.14 µM (inactive) | – | 1.68 µM (inactive) | 1.52 µM (inactive) | 1.11 µM (active) | 0.306 µM (active) | 0.442 µM (active) | 2.03 µM (inactive) | 1.66 µM (inactive) | 1.35 µM (inactive) | 1.82 µM (inactive) | –
3 | NC(=O)CCC(Nc1c2ccccc2[n+]([O-])c2ccccc12)C(=O)O (centres undefined) | > 100 µM (inactive) | 55.1 µM (inactive) | 26.4 µM (inactive) | 42.5 µM (inactive) | 18.6 µM (inactive) | 51.3 µM (inactive) | 32.7 µM (inactive) | 38.3 µM (inactive) | 64.6 µM (inactive) | > 100 µM (inactive) | 77.1 µM (inactive) | > 100 µM (inactive) | 29.9 µM (inactive) | 36.6 µM (inactive) | > 100 µM (inactive) | –
4 | C/C(=N\NS(=O)(=O)c1c(C)cc(C)cc1C)c1ccc[n+]([O-])n1 | – | 14.5 µM (inactive) | 13.3 µM (inactive) | 3.96 µM (inactive) | 11.7 µM (inactive) | 16.4 µM (inactive) | – | 13.1 µM (inactive) | – | 33 µM (inactive) | > 100 µM (inactive) | 14.3 µM (inactive) | 6.61 µM (inactive) | 14.2 µM (inactive) | 26.8 µM (inactive) | 22.3 µM (inactive)
5 | COc1ccc2oc(C(=O)O)c3c2c1CCC3 | – | > 100 µM (inactive) | > 100 µM (inactive) | > 100 µM (inactive) | > 100 µM (inactive) | > 100 µM (inactive) | – | > 100 µM (inactive) | – | > 100 µM (inactive) | > 100 µM (inactive) | > 100 µM (inactive) | – | > 100 µM (inactive) | – | –
6 | COC(=O)CCC(NC(=S)N/N=C/c1cccs1)C(=O)OC (centres undefined) | > 100 µM (inactive) | – | > 100 µM (inactive) | – | – | > 100 µM (inactive) | > 100 µM (inactive) | > 100 µM (inactive) | > 100 µM (inactive) | > 100 µM (inactive) | > 100 µM (inactive) | > 100 µM (inactive) | > 100 µM (inactive) | > 100 µM (inactive) | > 100 µM (inactive) | > 100 µM (inactive)
7 | C1=Cc2nc1c(-c1ccccc1)c1ccc([n-]1)c(-c1ccccc1)c1nc(c(-c3ccccc3)c3ccc([n-]3)c2-c2ccccc2)C=C1.[Zn+2] | > 100 µM (inactive) | > 100 µM (inactive) | > 100 µM (inactive) | > 100 µM (inactive) | 75.7 µM (inactive) | > 100 µM (inactive) | > 100 µM (inactive) | > 100 µM (inactive) | > 100 µM (inactive) | > 100 µM (inactive) | > 100 µM (inactive) | > 100 µM (inactive) | > 100 µM (inactive) | > 100 µM (inactive) | > 100 µM (inactive) | –
8 | CC(C)(C)C1CCN(C(=O)c2ccccc2)CC1 | > 100 µM (inactive) | 47.3 µM (inactive) | – | > 100 µM (inactive) | 46 µM (inactive) | > 100 µM (inactive) | 43.6 µM (inactive) | 53.8 µM (inactive) | > 100 µM (inactive) | > 100 µM (inactive) | > 100 µM (inactive) | > 100 µM (inactive) | 62.7 µM (inactive) | > 100 µM (inactive) | > 100 µM (inactive) | 64.6 µM (inactive)
9 | O=C(O)CCC1c2[nH]c3ccccc3c2CCN1Cc1ccccc1 (centres undefined) | > 100 µM (inactive) | > 100 µM (inactive) | > 100 µM (inactive) | > 100 µM (inactive) | – | > 100 µM (inactive) | > 100 µM (inactive) | > 100 µM (inactive) | > 100 µM (inactive) | > 100 µM (inactive) | > 100 µM (inactive) | > 100 µM (inactive) | > 100 µM (inactive) | > 100 µM (inactive) | > 100 µM (inactive) | > 100 µM (inactive)
10 | O=C(O)CCSC(=O)Nc1ccccc1F | > 100 µM (inactive) | > 100 µM (inactive) | > 100 µM (inactive) | > 100 µM (inactive) | > 100 µM (inactive) | – | – | > 100 µM (inactive) | > 100 µM (inactive) | > 100 µM (inactive) | > 100 µM (inactive) | > 100 µM (inactive) | > 100 µM (inactive) | > 100 µM (inactive) | > 100 µM (inactive) | > 100 µM (inactive)
11 | Cc1c(C(=O)CC(=O)C(=O)Nc2c(C(C)C)cccc2C(C)C)[n+]([O-])c2ccccc2[n+]1[O-] | 11.4 µM (inactive) | 2.9 µM (inactive) | 13.7 µM (inactive) | 2.34 µM (inactive) | 3.18 µM (inactive) | 9.98 µM (inactive) | 7.19 µM (inactive) | 2.81 µM (inactive) | 22.6 µM (inactive) | 5.14 µM (inactive) | 7.73 µM (inactive) | 5.21 µM (inactive) | 2.25 µM (inactive) | 2.52 µM (inactive) | 21.3 µM (inactive) | –
12 | CC(C(=O)c1ccc(Cl)cc1)C1OC(=O)C(Cl)=C1Cl (centres undefined) | 23.2 µM (inactive) | 24.8 µM (inactive) | 27.3 µM (inactive) | 19 µM (inactive) | 26.9 µM (inactive) | 19.7 µM (inactive) | 21.4 µM (inactive) | – | 68.2 µM (inactive) | 26.6 µM (inactive) | 85.1 µM (inactive) | 21.2 µM (inactive) | 18.9 µM (inactive) | 41.3 µM (inactive) | > 100 µM (inactive) | –
13 | Cc1ccc2oc(=O)cc(CC(=O)O)c2c1 | > 100 µM (inactive) | > 100 µM (inactive) | > 100 µM (inactive) | > 100 µM (inactive) | > 100 µM (inactive) | > 100 µM (inactive) | > 100 µM (inactive) | > 100 µM (inactive) | > 100 µM (inactive) | > 100 µM (inactive) | > 100 µM (inactive) | > 100 µM (inactive) | > 100 µM (inactive) | > 100 µM (inactive) | > 100 µM (inactive) | –
14 | CCCCCCCCC1C(C)c2c([nH]c3ccccc23)C2C(=O)N(c3ccccc3)C(=O)C21 (centres undefined) | 16 µM (inactive) | 2.27 µM (inactive) | 16.8 µM (inactive) | 2.76 µM (inactive) | 3.4 µM (inactive) | 18.9 µM (inactive) | 19.5 µM (inactive) | 3.27 µM (inactive) | 11.8 µM (inactive) | 12.5 µM (inactive) | – | 13.1 µM (inactive) | – | 11.5 µM (inactive) | 18.3 µM (inactive) | –
15 | CC12OC3(C)OC(=O)C(c4ccccc4)(O1)C3(C)O2 (centres undefined) | > 100 µM (inactive) | > 100 µM (inactive) | > 100 µM (inactive) | > 100 µM (inactive) | > 100 µM (inactive) | > 100 µM (inactive) | > 100 µM (inactive) | > 100 µM (inactive) | > 100 µM (inactive) | > 100 µM (inactive) | > 100 µM (inactive) | > 100 µM (inactive) | > 100 µM (inactive) | > 100 µM (inactive) | > 100 µM (inactive) | –
16 | CC12CCC3(OCCO3)C(OC(=O)c3ccccc3)=C1CCC21OCCO1 (centres undefined) | – | > 100 µM (inactive) | > 100 µM (inactive) | > 100 µM (inactive) | 71.3 µM (inactive) | > 100 µM (inactive) | > 100 µM (inactive) | > 100 µM (inactive) | 4.7 µM (inactive) | > 100 µM (inactive) | > 100 µM (inactive) | > 100 µM (inactive) | > 100 µM (inactive) | > 100 µM (inactive) | > 100 µM (inactive) | > 100 µM (inactive)
17 | O=C1c2ccccc2CC1C1(O)C(=O)Nc2ccccc21 (centres undefined) | > 100 µM (inactive) | > 100 µM (inactive) | > 100 µM (inactive) | – | > 100 µM (inactive) | > 100 µM (inactive) | > 100 µM (inactive) | > 100 µM (inactive) | > 100 µM (inactive) | – | > 100 µM (inactive) | > 100 µM (inactive) | > 100 µM (inactive) | > 100 µM (inactive) | > 100 µM (inactive) | –
18 | O=C(CC(=O)c1cccc([N+](=O)[O-])c1)C(=O)Nc1nc([N+](=O)[O-])cs1 | > 100 µM (inactive) | > 100 µM (inactive) | > 100 µM (inactive) | 47.8 µM (inactive) | 65 µM (inactive) | > 100 µM (inactive) | > 100 µM (inactive) | > 100 µM (inactive) | > 100 µM (inactive) | > 100 µM (inactive) | > 100 µM (inactive) | > 100 µM (inactive) | 33.3 µM (inactive) | – | > 100 µM (inactive) | 83 µM (inactive)
19 | O=c1[nH]c2cc([N+](=O)[O-])ccc2nc1/C(=N\NO)C(O)c1ccc([N+](=O)[O-])cc1 (centres undefined) | – | > 100 µM (inactive) | > 100 µM (inactive) | 66.2 µM (inactive) | > 100 µM (inactive) | 59.6 µM (inactive) | > 100 µM (inactive) | > 100 µM (inactive) | > 100 µM (inactive) | > 100 µM (inactive) | > 100 µM (inactive) | > 100 µM (inactive) | 44.7 µM (inactive) | 52.5 µM (inactive) | > 100 µM (inactive) | > 100 µM (inactive)

Reference: ChEMBL document CHEMBL1201862, “PubChem BioAssay data set” (2004)
